A word on the AC50: it is the concentration giving half of the maximal activity seen. As usually defined, the IC50 is the concentration needed to halve the response being measured. Usually Ki stands for the dissociation constant of the complex between target and ligand, obtained from inhibition or displacement.

This is an account of results in ChEMBL document CHEMBL1201862, “PubChem BioAssay data set” (2004).

Common to all, as to format: functional
One test concerns INS1. The experiment in a line: INS-1E survival protection against cytokine death – cell-based, luminescence, retest, dose response (AID 449756).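 Note: cell death triggered by IL-1 beta plus TNF-alpha plus IFN-gamma mixture; protective hits raise ATP signal compared with cytokine alone wells.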 The settings on record: Rattus norvegicus.
For test [1], the target named is T1, Apoptotic protease-activating factor 1 (Homo sapiens, UniProt O14727).
T1 sequence (O14727 whole entry): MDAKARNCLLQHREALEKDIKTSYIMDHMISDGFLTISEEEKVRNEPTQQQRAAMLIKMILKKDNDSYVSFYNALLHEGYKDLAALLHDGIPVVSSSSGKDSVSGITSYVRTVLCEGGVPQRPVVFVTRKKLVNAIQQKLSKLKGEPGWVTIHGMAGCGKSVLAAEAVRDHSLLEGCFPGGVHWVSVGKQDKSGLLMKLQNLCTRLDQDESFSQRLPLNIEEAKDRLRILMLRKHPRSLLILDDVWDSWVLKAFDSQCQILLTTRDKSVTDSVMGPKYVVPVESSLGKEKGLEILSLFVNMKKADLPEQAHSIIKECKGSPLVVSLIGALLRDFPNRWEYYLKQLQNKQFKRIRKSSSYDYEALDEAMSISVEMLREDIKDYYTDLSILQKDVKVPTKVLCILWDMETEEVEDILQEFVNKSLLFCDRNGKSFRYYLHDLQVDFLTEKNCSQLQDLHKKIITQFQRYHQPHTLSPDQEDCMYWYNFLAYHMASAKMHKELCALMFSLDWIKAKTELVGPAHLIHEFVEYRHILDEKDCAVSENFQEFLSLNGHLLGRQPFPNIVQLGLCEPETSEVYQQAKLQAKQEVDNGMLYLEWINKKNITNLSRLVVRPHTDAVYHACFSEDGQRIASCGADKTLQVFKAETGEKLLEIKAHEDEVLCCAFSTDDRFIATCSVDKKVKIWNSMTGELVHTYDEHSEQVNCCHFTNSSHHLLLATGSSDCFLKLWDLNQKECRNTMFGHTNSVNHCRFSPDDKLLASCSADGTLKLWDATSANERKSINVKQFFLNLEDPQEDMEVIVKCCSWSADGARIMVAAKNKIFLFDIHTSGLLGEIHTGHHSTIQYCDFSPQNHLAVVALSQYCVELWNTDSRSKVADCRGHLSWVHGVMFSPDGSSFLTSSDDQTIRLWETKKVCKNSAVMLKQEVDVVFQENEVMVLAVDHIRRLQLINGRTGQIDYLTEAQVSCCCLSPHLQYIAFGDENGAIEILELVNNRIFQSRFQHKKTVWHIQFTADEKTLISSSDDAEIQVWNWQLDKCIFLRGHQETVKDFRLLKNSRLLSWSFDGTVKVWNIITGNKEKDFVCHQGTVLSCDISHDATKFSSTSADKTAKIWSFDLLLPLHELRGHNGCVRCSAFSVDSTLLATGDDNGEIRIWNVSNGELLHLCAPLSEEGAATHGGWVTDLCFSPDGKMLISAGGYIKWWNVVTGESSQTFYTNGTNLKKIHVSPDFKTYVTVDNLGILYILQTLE

The target in test [2] is T2, Serine/threonine-protein kinase D3 (Homo sapiens, UniProt O94806).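 Note: determined within a kinase panel screen, with PRKCN as the panel member.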
T2 sequence (O94806 whole entry): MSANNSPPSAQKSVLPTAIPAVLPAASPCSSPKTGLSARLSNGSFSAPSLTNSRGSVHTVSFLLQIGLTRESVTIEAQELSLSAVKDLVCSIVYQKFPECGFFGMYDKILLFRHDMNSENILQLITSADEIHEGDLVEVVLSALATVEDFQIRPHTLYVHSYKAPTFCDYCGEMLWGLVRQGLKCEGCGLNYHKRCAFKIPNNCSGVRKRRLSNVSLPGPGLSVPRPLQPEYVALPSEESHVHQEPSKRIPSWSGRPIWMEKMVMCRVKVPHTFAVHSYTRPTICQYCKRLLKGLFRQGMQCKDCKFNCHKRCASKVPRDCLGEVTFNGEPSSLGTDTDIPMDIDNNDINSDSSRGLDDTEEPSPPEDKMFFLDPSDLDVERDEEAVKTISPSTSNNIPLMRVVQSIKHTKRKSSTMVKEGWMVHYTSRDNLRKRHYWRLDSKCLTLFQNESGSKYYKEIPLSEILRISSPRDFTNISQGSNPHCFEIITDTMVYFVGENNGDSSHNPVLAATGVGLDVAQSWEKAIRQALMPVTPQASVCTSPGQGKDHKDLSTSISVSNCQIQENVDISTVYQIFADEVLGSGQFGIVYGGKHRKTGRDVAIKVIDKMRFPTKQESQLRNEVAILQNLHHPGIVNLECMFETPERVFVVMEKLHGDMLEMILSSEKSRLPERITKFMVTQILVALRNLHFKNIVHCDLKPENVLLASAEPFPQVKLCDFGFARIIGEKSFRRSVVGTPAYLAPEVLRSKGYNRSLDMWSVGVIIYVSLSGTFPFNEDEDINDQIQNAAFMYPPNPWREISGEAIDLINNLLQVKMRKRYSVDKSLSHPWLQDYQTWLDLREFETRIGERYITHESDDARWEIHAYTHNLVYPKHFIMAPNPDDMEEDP

Test [3] has as its target Tyrosine-protein kinase JAK3 (Homo sapiens, UniProt P52333).
The target in test [4] is High affinity nerve growth factor receptor (Homo sapiens, UniProt P04629).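 Note: NTRK1 tested as one member of a kinome-wide profiling panel.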
Test [5] concerns the target Tyrosine-protein kinase Fyn (Homo sapiens, UniProt P06241).
The target of test [6] is Serine/threonine-protein kinase Nek2 (Homo sapiens, UniProt P51955).
Test [7] deals with Tyrosine-protein kinase JAK2 (Homo sapiens, UniProt O60674).
The target of test [8] is Death-associated protein kinase 3 (Homo sapiens, UniProt O43293).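 Note: measured as one member of a kinome-wide profiling panel.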
Test [9] deals with Serine/threonine-protein kinase TAO1 (Homo sapiens, UniProt Q7L7X3).
In test [10] the target is Mitogen-activated protein kinase kinase kinase kinase 2 (Homo sapiens, UniProt Q12851).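 Note: measured as one member of a kinome-wide kinase panel, with MAP4K2 as the panel entry.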
In test [11] the target is Vascular endothelial growth factor receptor 2 (Homo sapiens, UniProt P35968).
Test [12] addresses Leucine-rich repeat serine/threonine-protein kinase 2 (Homo sapiens, UniProt Q5S007).
The target in test [13] is Rho-associated protein kinase 1 (Homo sapiens, UniProt Q13464).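 Note: measured within a broad kinome-wide panel profiling many kinases.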
Test [14] concerns the target Cyclin-dependent kinase 8 (Homo sapiens, UniProt P49336). The experiment in a line: Navigating the Kinome. Panel member name: CDK8.
In test [15] the target is Cyclin-dependent kinase 9 (Homo sapiens, UniProt P50750).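 Note: value from the CDK9 entry of a kinome-spanning kinase panel.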
In test [16] the target is Dual specificity protein kinase CLK4 (Homo sapiens, UniProt Q9HAZ1).

Molecules are shown by their SMILES. Calls of active or inactive are those of the source. A value given as a limit tells only on which side of the number the result lay.

Chain of Serine/threonine-protein kinase Nek2 (P51955 whole entry): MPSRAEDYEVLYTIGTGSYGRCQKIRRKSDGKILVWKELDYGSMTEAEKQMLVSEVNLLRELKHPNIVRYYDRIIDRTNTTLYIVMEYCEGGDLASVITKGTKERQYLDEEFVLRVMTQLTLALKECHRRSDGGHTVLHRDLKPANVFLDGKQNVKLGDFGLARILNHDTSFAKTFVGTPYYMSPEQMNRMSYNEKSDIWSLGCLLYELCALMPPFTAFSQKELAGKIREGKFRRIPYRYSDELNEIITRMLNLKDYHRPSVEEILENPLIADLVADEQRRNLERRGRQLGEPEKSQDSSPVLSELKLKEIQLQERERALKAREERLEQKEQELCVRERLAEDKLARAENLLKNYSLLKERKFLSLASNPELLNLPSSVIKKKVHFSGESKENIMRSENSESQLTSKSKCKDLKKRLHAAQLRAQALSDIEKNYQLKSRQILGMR
Chain of High affinity nerve growth factor receptor (P04629 whole entry): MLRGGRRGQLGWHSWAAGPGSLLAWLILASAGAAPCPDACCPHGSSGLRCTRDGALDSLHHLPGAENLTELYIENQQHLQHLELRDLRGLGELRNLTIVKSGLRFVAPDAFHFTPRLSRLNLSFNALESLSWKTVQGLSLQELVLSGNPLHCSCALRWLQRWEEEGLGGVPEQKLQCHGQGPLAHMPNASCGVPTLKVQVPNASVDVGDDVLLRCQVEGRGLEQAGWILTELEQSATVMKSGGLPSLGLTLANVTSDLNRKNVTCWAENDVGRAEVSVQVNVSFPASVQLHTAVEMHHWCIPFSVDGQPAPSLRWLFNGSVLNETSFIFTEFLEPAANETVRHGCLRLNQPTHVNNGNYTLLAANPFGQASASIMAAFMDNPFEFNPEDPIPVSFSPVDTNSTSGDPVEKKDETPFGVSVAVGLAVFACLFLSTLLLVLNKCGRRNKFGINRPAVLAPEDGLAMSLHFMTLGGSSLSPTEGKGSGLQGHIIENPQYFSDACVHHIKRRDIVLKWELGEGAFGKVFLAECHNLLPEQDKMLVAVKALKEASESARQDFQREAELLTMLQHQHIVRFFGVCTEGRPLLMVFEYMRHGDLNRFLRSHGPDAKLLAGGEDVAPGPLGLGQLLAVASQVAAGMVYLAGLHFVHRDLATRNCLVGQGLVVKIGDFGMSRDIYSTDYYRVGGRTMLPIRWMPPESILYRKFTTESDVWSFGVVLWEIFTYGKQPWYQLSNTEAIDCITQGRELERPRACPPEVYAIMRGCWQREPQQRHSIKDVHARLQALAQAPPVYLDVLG
Chain of Tyrosine-protein kinase Fyn (P06241 whole entry): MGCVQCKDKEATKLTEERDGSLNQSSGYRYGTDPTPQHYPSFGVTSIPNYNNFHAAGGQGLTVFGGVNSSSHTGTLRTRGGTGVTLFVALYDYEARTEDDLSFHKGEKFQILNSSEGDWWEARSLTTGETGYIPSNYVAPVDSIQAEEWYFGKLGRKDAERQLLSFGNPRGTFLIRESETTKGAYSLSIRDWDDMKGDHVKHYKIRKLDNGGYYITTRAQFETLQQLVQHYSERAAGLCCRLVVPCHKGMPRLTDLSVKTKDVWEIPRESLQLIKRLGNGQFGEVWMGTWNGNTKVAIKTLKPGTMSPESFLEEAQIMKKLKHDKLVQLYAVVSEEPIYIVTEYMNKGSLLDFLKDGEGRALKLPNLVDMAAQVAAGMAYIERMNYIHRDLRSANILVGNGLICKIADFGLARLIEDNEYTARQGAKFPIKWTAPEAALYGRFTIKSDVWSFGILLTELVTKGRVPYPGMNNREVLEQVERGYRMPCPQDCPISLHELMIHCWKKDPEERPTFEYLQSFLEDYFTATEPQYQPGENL
Chain of Cyclin-dependent kinase 8 (P49336 whole entry): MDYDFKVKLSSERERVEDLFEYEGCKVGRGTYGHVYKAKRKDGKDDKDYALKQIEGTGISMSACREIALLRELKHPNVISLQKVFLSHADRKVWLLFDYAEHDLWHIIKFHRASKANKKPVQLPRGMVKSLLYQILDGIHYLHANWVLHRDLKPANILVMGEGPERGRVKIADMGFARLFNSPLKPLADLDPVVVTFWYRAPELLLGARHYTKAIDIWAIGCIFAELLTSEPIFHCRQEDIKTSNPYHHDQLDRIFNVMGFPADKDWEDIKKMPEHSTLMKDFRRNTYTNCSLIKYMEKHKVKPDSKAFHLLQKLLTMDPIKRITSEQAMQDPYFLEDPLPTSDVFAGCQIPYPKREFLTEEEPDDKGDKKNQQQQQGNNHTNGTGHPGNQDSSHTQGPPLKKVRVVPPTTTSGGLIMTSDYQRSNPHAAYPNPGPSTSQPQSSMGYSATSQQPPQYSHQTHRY
Chain of Cyclin-dependent kinase 9 (P50750 whole entry): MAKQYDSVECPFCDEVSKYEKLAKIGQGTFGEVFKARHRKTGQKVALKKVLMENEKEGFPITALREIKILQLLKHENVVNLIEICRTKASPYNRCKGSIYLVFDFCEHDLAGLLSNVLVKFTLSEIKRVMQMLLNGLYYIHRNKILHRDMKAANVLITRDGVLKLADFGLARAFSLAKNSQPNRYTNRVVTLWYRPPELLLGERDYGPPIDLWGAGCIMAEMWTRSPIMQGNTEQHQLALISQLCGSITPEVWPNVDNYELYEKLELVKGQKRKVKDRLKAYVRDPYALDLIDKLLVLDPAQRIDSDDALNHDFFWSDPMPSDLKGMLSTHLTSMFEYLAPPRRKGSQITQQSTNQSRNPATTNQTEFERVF
Chain of Serine/threonine-protein kinase TAO1 (Q7L7X3 whole entry): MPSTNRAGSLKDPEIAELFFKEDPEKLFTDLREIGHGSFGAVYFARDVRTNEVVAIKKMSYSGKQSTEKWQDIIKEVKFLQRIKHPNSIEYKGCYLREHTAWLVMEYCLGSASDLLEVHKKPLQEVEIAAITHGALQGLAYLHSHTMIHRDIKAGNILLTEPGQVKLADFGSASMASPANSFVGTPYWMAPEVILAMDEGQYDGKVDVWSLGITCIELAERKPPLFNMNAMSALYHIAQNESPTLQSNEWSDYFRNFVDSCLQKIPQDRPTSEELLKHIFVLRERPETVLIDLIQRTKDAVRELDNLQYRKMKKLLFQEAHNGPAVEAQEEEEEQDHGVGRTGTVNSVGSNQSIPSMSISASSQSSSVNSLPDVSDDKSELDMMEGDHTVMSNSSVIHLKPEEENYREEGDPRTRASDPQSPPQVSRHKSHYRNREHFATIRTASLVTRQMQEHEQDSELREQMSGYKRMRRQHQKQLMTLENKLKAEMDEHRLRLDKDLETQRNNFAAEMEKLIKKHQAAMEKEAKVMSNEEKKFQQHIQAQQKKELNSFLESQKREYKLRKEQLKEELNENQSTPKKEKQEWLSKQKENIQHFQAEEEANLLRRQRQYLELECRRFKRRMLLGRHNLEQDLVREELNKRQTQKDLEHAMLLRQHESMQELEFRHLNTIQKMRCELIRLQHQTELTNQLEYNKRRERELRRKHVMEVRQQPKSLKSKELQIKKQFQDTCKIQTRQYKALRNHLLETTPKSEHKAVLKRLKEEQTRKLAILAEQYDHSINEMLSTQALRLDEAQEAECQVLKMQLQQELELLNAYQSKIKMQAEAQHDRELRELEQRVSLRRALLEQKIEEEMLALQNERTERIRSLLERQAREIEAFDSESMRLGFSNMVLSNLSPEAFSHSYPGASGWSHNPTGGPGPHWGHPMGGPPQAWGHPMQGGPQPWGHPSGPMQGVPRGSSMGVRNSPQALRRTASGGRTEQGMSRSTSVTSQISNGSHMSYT
Chain of Vascular endothelial growth factor receptor 2 (P35968 whole entry): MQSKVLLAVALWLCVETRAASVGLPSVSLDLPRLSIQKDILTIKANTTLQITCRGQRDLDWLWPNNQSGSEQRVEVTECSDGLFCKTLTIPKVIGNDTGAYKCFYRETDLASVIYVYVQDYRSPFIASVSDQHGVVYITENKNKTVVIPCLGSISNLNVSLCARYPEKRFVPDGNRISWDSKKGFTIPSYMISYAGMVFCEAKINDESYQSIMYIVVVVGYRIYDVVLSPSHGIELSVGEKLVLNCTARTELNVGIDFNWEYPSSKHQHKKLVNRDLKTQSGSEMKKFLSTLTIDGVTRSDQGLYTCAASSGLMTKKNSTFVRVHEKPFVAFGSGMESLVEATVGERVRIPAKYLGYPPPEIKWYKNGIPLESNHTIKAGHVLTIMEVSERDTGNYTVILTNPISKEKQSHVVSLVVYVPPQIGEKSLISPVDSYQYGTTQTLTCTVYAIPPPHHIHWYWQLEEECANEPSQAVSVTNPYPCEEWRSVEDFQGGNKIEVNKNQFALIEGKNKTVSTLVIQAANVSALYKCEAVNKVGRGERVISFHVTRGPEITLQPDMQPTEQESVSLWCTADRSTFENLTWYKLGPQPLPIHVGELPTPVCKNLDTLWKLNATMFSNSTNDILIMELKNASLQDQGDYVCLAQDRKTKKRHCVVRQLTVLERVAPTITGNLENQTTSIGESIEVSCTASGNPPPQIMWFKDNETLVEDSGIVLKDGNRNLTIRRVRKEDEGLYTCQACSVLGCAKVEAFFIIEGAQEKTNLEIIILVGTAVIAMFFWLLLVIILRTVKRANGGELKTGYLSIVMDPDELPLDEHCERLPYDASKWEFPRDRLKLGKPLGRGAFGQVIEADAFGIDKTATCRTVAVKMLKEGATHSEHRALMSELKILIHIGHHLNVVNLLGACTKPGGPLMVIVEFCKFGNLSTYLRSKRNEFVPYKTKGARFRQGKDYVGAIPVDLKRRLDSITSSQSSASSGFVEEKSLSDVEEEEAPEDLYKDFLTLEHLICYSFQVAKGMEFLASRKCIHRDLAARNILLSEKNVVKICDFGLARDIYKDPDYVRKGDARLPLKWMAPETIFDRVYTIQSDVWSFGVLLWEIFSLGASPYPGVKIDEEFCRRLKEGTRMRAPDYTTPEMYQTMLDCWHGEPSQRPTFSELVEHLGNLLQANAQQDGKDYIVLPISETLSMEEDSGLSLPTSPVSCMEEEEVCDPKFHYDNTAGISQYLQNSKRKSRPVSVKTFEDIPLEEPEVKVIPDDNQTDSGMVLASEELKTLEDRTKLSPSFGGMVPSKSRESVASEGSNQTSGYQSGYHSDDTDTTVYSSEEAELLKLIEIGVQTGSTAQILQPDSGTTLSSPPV

`CC(C)(C)c1cc[n+](C2=C([N-]S(=O)(=O)c3cccs3)C(=O)c3ccccc3C2=O)cc1`: the AC50 in the test on INS1 is 2.04 µM (active).

As for `CCc1ccc(S(=O)(=O)/N=C2\C=C(Nc3ccc(O)cc3)C(=O)c3ccccc32)cc1`, the IC50 in test [1] was 1.97 µM (active). Also, in the test on INS1, the AC50 was 0.981 µM (active).

Consider `Cc1ccc(F)c(NC(=O)Nc2ccc(-c3cccc4[nH]nc(N)c34)cc2)c1` [LINIFANIB], for which the Ki in test [2] was > 3.98 µM (inactive); in [3], > 5.01 µM (inactive); in test [4], > 3.16 µM (inactive); in [5] it was > 6.31 µM (inactive); in test [6], > 3.16 µM (inactive).

For `CCCNC(=O)c1c(N)n(CC2CCCO2)c2nc3ccccc3nc12` (stereo not given), in [1], the IC50 was 58.6 µM (active).

Turning to `COc1c(-c2nc3ccccc3[nH]2)c(O)cc2oc(C)cc(=O)c12`, the Ki in test [7] was 2 µM (active); in test [2], 0.794 µM (active); in [8], 2.51 µM (active); in [3], 3.98 µM (active); in [9] it was 3.98 µM (active); in test [4] it was 0.398 µM (active). Besides, the Ki is 0.501 µM (active) in [10]; 2.51 µM (active) in [11]; 0.794 µM (active) in test [12]; 3.16 µM (active) in test [13]; 2 µM (active) in [5]; 0.316 µM (active) in test [6]. For the same compound, the figures for the Ki in [14], in test [15] and in [16] were 0.316 µM (active), 0.158 µM (active) and 0.0794 µM (active), respectively.

Take `COC(=O)c1c(N)nc2ccccn12`: the Ki in [7] was 79.4 µM (active); in test [2] it was 50.1 µM (active); in test [8], 50.1 µM (active); in test [9], 100 µM (active); in test [10], 50.1 µM (active); in test [11], 25.1 µM (active). For the same compound, the Ki in test [12] was 2.51 µM (active); in test [13], 39.8 µM (active); in test [14], 20 µM (active); in [15], 39.8 µM (active); in test [16], 3.98 µM (active).
